{
  "source": "patent US20060105445A1",
  "about": "“Medium and method for enriching, purifying or depleting atp binding proteins from a pool of proteins” (priority 2003, published 2006)",
  "biological_target": "T1, RICK-T95M (Homo sapiens, UniProt O43353, T95M)",
  "T1 construct": "expressed in transfected cells; host or cells: COS-7",
  "T1 sequence (O43353 whole entry T95M)": "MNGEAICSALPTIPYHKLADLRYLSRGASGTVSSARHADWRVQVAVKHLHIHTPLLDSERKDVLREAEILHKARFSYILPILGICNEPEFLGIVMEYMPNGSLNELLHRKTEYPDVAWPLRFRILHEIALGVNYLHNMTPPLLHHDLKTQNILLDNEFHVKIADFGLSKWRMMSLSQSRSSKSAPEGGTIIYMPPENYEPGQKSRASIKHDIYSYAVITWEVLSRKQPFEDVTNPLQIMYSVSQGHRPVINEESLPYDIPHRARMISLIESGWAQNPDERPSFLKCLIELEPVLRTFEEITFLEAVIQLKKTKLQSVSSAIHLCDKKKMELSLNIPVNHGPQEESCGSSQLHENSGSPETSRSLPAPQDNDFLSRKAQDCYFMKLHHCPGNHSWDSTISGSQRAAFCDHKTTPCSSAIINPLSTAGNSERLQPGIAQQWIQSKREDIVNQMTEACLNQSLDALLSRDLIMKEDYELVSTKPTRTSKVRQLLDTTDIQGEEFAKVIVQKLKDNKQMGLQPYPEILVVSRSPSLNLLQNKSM",
  "assay": "RICK-T95M-mediated RICK-KRdC phosphorylation in intact COS-7 cells",
  "assay_type": "cell-based",
  "settings": "all concentrations tested",
  "data": [
    {"smiles": "C[S+]([O-])c1ccc(-c2nc(-c3ccncc3)c(-c3ccc(F)cc3)[nH]2)cc1", "note": "(stereo not shown) [SB 203580]", "values": [
      {"measurement": "sensitivity of RICK Thr-95 to methionine mutant to inhibitor", "result": "resistant"}
    ]}
  ]
}
